# Experimental data from ChEMBL document CHEMBL1201862, “PubChem BioAssay data set” (2004).
#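 Grown in 96-well plates, cells were treated for 48 hours with each compound at five concentrations. Insufficient inhibition: endpoint recorded as highest concentration tested. GI50 = concentration required for 50% inhibition of growth.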 Active and inactive are the calls of the source. Rule as the data show it: active = GI50 up to about 1.1 µM and inactive = higher.
# Columns and labels:
# Test in all cases: NCI-60 cell line screen, 48 h
# SK-MEL-28 = test system: SK-MEL-28
# A549 = test system: A549
# 786-0 = test system: 786-0
# A498 = test system: A498
# EKVX = test system: EKVX
# BT-549 = test system: BT-549
# OVCAR-3 = test system: OVCAR-3
# IGROV-1 = test system: IGROV-1
# KM12 = test system: KM12
# DU-145 = test system: DU-145
# CCRF-CEM = test system: CCRF-CEM
# MDA-MB-231 = test system: MDA-MB-231
# ACHN = test system: ACHN
# MCF7 = test system: MCF7
# MOLT-4 = test system: MOLT-4
# K562 = test system: K562
# HCT-116 = test system: HCT-116
# SK-MEL-2 = test system: SK-MEL-2
# SR = test system: SR
# OVCAR-8 = test system: OVCAR-8
# RXF 393 = test system: RXF 393
# NCI/ADR-RES = test system: NCI/ADR-RES
# U-251 = test system: U-251
# Malme-3M = test system: Malme-3M
# NCI-H460 = test system: NCI-H460
# NCI-H522 = test system: NCI-H522
# HT-29 = test system: HT-29
# M14 = test system: M14
# HCC 2998 = test system: HCC 2998
# NCI-H226 = test system: NCI-H226
# HCT-15 = test system: HCT-15
# HOP-92 = test system: HOP-92
# MDA-MB-435 = test system: MDA-MB-435
# SNB-75 = test system: SNB-75
# T47D = test system: T47D
# TK-10 = test system: TK-10
# HL-60 = test system: HL-60
# SF-295 = test system: SF-295
# SNB-19 = test system: SNB-19
# NCI-H23 = test system: NCI-H23
# SK-MEL-5 = test system: SK-MEL-5
# UACC-62 = test system: UACC-62
# OVCAR-4 = test system: OVCAR-4
# CAKI-1 = test system: CAKI-1
# LOX IMVI = test system: LOX IMVI
# HOP-62 = test system: HOP-62
# RPMI-8226 = test system: RPMI-8226
# UO-31 = test system: UO-31
# SW-620 = test system: SW-620
# SF-268 = test system: SF-268
# COLO 205 = test system: COLO 205
# OVCAR-5 = test system: OVCAR-5
# SF-539 = test system: SF-539
# UACC-257 = test system: UACC-257
# PC-3 = test system: PC-3
# Hs-578T = test system: Hs-578T
# SK-OV-3 = test system: SK-OV-3
# SN12C = test system: SN12C
# MDA-N = test system: MDA-N
structure (smiles),measurement,setting,value
Oc1c(-c2ccccc2)sc2ccccc12,GI50,SK-MEL-28,68.9 µM (inactive)
same,GI50,A549,31.9 µM (inactive)
same,GI50,786-0,22.4 µM (inactive)
same,GI50,A498,31.4 µM (inactive)
same,GI50,EKVX,24.9 µM (inactive)
same,GI50,BT-549,28.1 µM (inactive)
same,GI50,OVCAR-3,10.2 µM (inactive)
same,GI50,IGROV-1,27.5 µM (inactive)
same,GI50,KM12,25.8 µM (inactive)
same,GI50,DU-145,18.8 µM (inactive)
same,GI50,CCRF-CEM,29.8 µM (inactive)
same,GI50,MDA-MB-231,7.55 µM (inactive)
same,GI50,ACHN,24.7 µM (inactive)
same,GI50,MCF7,33.3 µM (inactive)
same,GI50,MOLT-4,24.7 µM (inactive)
same,GI50,K562,13.7 µM (inactive)
same,GI50,HCT-116,18.7 µM (inactive)
same,GI50,SK-MEL-2,10.8 µM (inactive)
same,GI50,SR,7.5 µM (inactive)
same,GI50,OVCAR-8,31.6 µM (inactive)
same,GI50,RXF 393,14.7 µM (inactive)
same,GI50,NCI/ADR-RES,34 µM (inactive)
same,GI50,U-251,29.4 µM (inactive)
same,GI50,Malme-3M,22.1 µM (inactive)
same,GI50,NCI-H460,19.1 µM (inactive)
same,GI50,NCI-H522,27.9 µM (inactive)
same,GI50,HT-29,31.3 µM (inactive)
same,GI50,M14,20.2 µM (inactive)
same,GI50,HCC 2998,17.1 µM (inactive)
same,GI50,NCI-H226,16.4 µM (inactive)
same,GI50,HCT-15,31.9 µM
same,GI50,HOP-92,21.9 µM (inactive)
same,GI50,MDA-MB-435,31.6 µM (inactive)
same,GI50,SNB-75,12.4 µM (inactive)
same,GI50,T47D,11 µM (inactive)
same,GI50,TK-10,72.6 µM (inactive)
same,GI50,HL-60,22.6 µM (inactive)
same,GI50,SF-295,19.5 µM (inactive)
same,GI50,SNB-19,34.3 µM (inactive)
same,GI50,NCI-H23,20.4 µM (inactive)
same,GI50,SK-MEL-5,16.7 µM (inactive)
same,GI50,UACC-62,49.3 µM (inactive)
same,GI50,OVCAR-4,37.9 µM (inactive)
same,GI50,CAKI-1,0.836 µM (active)
same,GI50,LOX IMVI,15.5 µM (inactive)
same,GI50,HOP-62,16.7 µM (inactive)
same,GI50,RPMI-8226,8.63 µM (inactive)
same,GI50,UO-31,24.9 µM (inactive)
same,GI50,SW-620,48.3 µM (inactive)
same,GI50,SF-268,60.7 µM (inactive)
same,GI50,COLO 205,13 µM (inactive)
same,GI50,OVCAR-5,27 µM (inactive)
same,GI50,SF-539,44.5 µM (inactive)
same,GI50,UACC-257,25.2 µM (inactive)
same,GI50,PC-3,18.7 µM (inactive)
same,GI50,Hs-578T,43.9 µM (inactive)
O=C1N[C@H]2c3c(Cl)sc(Cl)c3[C@@H](O)[C@H]2O1,GI50,SK-MEL-28,> 100 µM (inactive)
same,GI50,A549,> 100 µM (inactive)
same,GI50,786-0,> 100 µM (inactive)
same,GI50,A498,> 100 µM (inactive)
same,GI50,EKVX,> 100 µM (inactive)
same,GI50,BT-549,> 100 µM (inactive)
same,GI50,OVCAR-3,> 100 µM (inactive)
same,GI50,IGROV-1,> 100 µM (inactive)
same,GI50,SK-OV-3,> 100 µM (inactive)
same,GI50,KM12,> 100 µM (inactive)
same,GI50,DU-145,> 100 µM (inactive)
same,GI50,CCRF-CEM,> 100 µM (inactive)
same,GI50,MDA-MB-231,> 100 µM (inactive)
same,GI50,ACHN,> 100 µM (inactive)
same,GI50,MCF7,> 100 µM (inactive)
same,GI50,MOLT-4,> 100 µM (inactive)
same,GI50,K562,> 100 µM (inactive)
same,GI50,HCT-116,> 100 µM (inactive)
same,GI50,SK-MEL-2,> 100 µM (inactive)
same,GI50,SR,> 100 µM (inactive)
same,GI50,OVCAR-8,> 100 µM (inactive)
same,GI50,RXF 393,> 100 µM (inactive)
same,GI50,NCI/ADR-RES,> 100 µM (inactive)
same,GI50,U-251,> 100 µM (inactive)
same,GI50,Malme-3M,> 100 µM (inactive)
same,GI50,NCI-H460,> 100 µM (inactive)
same,GI50,HT-29,> 100 µM (inactive)
same,GI50,M14,> 100 µM (inactive)
same,GI50,HCC 2998,> 100 µM (inactive)
same,GI50,HCT-15,> 100 µM
same,GI50,MDA-MB-435,> 100 µM (inactive)
same,GI50,SNB-75,> 100 µM (inactive)
same,GI50,T47D,> 100 µM (inactive)
same,GI50,TK-10,> 100 µM (inactive)
same,GI50,HL-60,> 100 µM (inactive)
same,GI50,SNB-19,> 100 µM (inactive)
same,GI50,SK-MEL-5,> 100 µM (inactive)
same,GI50,UACC-62,> 100 µM (inactive)
same,GI50,CAKI-1,> 100 µM (inactive)
same,GI50,SN12C,> 100 µM (inactive)
same,GI50,HOP-62,> 100 µM (inactive)
same,GI50,RPMI-8226,> 100 µM (inactive)
same,GI50,UO-31,> 100 µM (inactive)
same,GI50,SW-620,> 100 µM (inactive)
same,GI50,SF-268,> 100 µM (inactive)
same,GI50,COLO 205,> 100 µM (inactive)
same,GI50,OVCAR-5,> 100 µM (inactive)
same,GI50,SF-539,> 100 µM (inactive)
same,GI50,UACC-257,> 100 µM (inactive)
same,GI50,MDA-N,> 100 µM (inactive)
same,GI50,PC-3,> 100 µM (inactive)
Cc1c(CCN=P(c2ccccc2)(c2ccccc2)c2ccccc2)c(=O)n2c([nH]c3ccccc32)c1C#N,GI50,SK-MEL-28,> 10 µM (inactive)
same,GI50,A549,> 10 µM (inactive)
same,GI50,786-0,> 10 µM (inactive)
same,GI50,EKVX,> 10 µM (inactive)
same,GI50,IGROV-1,> 10 µM (inactive)
same,GI50,SK-OV-3,> 10 µM (inactive)
same,GI50,KM12,> 10 µM (inactive)
same,GI50,DU-145,> 10 µM (inactive)
same,GI50,CCRF-CEM,6.93 µM (inactive)
same,GI50,MDA-MB-231,> 10 µM (inactive)
same,GI50,MCF7,> 10 µM (inactive)
same,GI50,MOLT-4,6.19 µM (inactive)
same,GI50,K562,8.36 µM (inactive)
same,GI50,SR,8.75 µM (inactive)
same,GI50,OVCAR-8,> 10 µM (inactive)
same,GI50,RXF 393,> 10 µM (inactive)
same,GI50,Malme-3M,> 10 µM (inactive)
same,GI50,HT-29,> 10 µM (inactive)
same,GI50,M14,> 10 µM (inactive)
same,GI50,HCC 2998,> 10 µM (inactive)
same,GI50,HCT-15,> 10 µM
same,GI50,SNB-75,> 10 µM (inactive)
same,GI50,T47D,> 10 µM (inactive)
same,GI50,TK-10,> 10 µM (inactive)
same,GI50,HL-60,7.21 µM (inactive)
same,GI50,SF-295,> 10 µM (inactive)
same,GI50,NCI-H23,> 10 µM (inactive)
same,GI50,SK-MEL-5,> 10 µM (inactive)
same,GI50,UACC-62,> 10 µM (inactive)
same,GI50,CAKI-1,> 10 µM (inactive)
same,GI50,LOX IMVI,> 10 µM (inactive)
same,GI50,SN12C,> 10 µM (inactive)
same,GI50,HOP-62,> 10 µM (inactive)
same,GI50,RPMI-8226,> 10 µM (inactive)
same,GI50,SW-620,> 10 µM (inactive)
same,GI50,SF-268,> 10 µM (inactive)
same,GI50,COLO 205,> 10 µM (inactive)
same,GI50,UACC-257,> 10 µM (inactive)
same,GI50,MDA-N,> 10 µM (inactive)
same,GI50,PC-3,> 10 µM (inactive)
